Some test systems named below: OVCAR-5 ovarian; T-47D breast; SR leukemia; SF-295 CNS; SF-539 CNS; RPMI-8226 leukemia; HT29 colon; BT-549 breast; LOX IMVI melanoma; CCRF-CEM leukemia.
Holding throughout (experiment): DTP human tumour cell line panel, 48 h

Several values for one entry are separate records, joined by “and”; a condition that tells them apart may be missing. Equal values may be shown once.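 These data come from cells grown in 96-well plates and exposed to compound for 48 hours at five concentrations. GI50: concentration for 50% inhibition of growth. Definition used: TGI = concentration required for complete inhibition of growth.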

Usually GI50 stands for the concentration giving 50% growth inhibition. As a reminder, the TGI is the concentration at which net growth stops. A higher TGI goes with less potent growth arrest. In the case of `CO[C@H]1CC(O[C@@H]2/C(C)=C/C[C@@H]3C[C@@H](C[C@]4(CC[C@H](C)[C@@H](C5CCCCC5)O4)O3)OC(=O)[C@@H]3C=C(C)/C(=N/O)[C@H]4OC/C(=C\C=C\[C@@H]2C)[C@]43O)O[C@@H](C)C1O` (some centres undefined), the GI50 in the experiment with OVCAR-5 ovarian is 0.917 µM; in the experiment with T-47D breast it was 1.1 µM; with SR leukemia, 1110 nM; in the experiment on SF-295 CNS, 0.888 µM; in the experiment with SF-539 CNS it was 0.948 µM; with RPMI-8226 leukemia it was 0.944 µM. The GI50 in the experiment on HT29 colon is 0.966 µM; with BT-549 breast it was 1.17 µM; in the experiment on LOX IMVI melanoma it was 0.651 µM. For the same compound, the TGI in the experiment with OVCAR-5 ovarian worked out at 2.02 µM; with T-47D breast, 3.09 µM; in the experiment on SR leukemia, 2.79 µM; with SF-295 CNS, 1.87 µM; in the experiment with SF-539 CNS, 1.93 µM; with RPMI-8226 leukemia, 2.72 µM. Besides, the TGI with HT29 colon came to 2.05 µM; with BT-549 breast, 3.41 µM; with LOX IMVI melanoma, 1.28 µM.

`O=C(O)C1[O][Sb][O]C(C(=O)O)C1O` (centres undefined): the GI50 was more than 100 µM with CCRF-CEM leukemia; more than 100 µM with OVCAR-5 ovarian; more than 100 µM in the experiment on T-47D breast; more than 100000 nM in the experiment on SR leukemia; more than 100 µM in the experiment with SF-295 CNS; more than 100 µM in the experiment on HT29 colon. In addition, the GI50 with BT-549 breast and with LOX IMVI melanoma was more than 100 µM throughout. The TGI in the experiment with CCRF-CEM leukemia, in the experiment on OVCAR-5 ovarian, with T-47D breast, in the experiment with SR leukemia, with SF-295 CNS and in the experiment on HT29 colon was more than 100 µM throughout. Besides, the TGI in the experiment on BT-549 breast and with LOX IMVI melanoma was more than 100 µM each time.

Turning to `CC(=O)N1N=C(c2ccc(Nc3nc(Nc4ccc(F)cc4)nc(Nc4ccc(F)cc4)n3)cc2)CC1c1ccc(N(C)C)cc1` (centres undefined), the GI50 with CCRF-CEM leukemia was 3.36 µM; with OVCAR-5 ovarian it was 29.5 µM; in the experiment on T-47D breast it was 4.5 µM; in the experiment with SF-295 CNS, 4.34 µM; in the experiment on SF-539 CNS it was 12.8 µM; in the experiment with RPMI-8226 leukemia it was 1.77 µM. Moreover, the GI50 in the experiment on HT29 colon was 3.79 µM; in the experiment with BT-549 breast, 11 µM; in the experiment on LOX IMVI melanoma, 12.2 µM. Besides, the TGI in the experiment with CCRF-CEM leukemia was 49.9 µM; with OVCAR-5 ovarian, more than 100 µM; in the experiment on T-47D breast, 37.4 µM; in the experiment with SF-295 CNS, 50.7 µM; in the experiment on SF-539 CNS it was 41.2 µM; with RPMI-8226 leukemia it was 7.57 µM. Also, the results for the TGI with HT29 colon, in the experiment with BT-549 breast and in the experiment on LOX IMVI melanoma were 28.9 µM, 54.8 µM and 24.6 µM, respectively.

With `C=CCC(N[C@@H](CO)c1ccccc1)c1cn(C(=O)OCC)c2ccccc12` (some centres undefined), the GI50 was 19.2 µM with CCRF-CEM leukemia; 23.3 µM in the experiment with OVCAR-5 ovarian; 25.8 µM with T-47D breast; 20.8 µM with SF-295 CNS; 20.6 µM in the experiment on SF-539 CNS; 17.9 µM in the experiment with RPMI-8226 leukemia. The GI50 in the experiment with HT29 colon is 23.3 µM; with BT-549 breast, 32.9 µM; with LOX IMVI melanoma, 16.7 µM. Besides, the TGI in the experiment on CCRF-CEM leukemia was 56.7 µM; in the experiment with OVCAR-5 ovarian it was 66.1 µM; with T-47D breast it was more than 100 µM; in the experiment on SF-295 CNS it was 53.9 µM; in the experiment on SF-539 CNS, 37.3 µM; in the experiment on RPMI-8226 leukemia, 52.3 µM. For the same compound, the figures for the TGI with HT29 colon, with BT-549 breast and in the experiment on LOX IMVI melanoma were 62.7 µM, more than 100 µM and 32.2 µM, respectively.

As for `CC(C)CCCCCCCCCCCCC(=O)NCC(=O)NC1C(O)C(O)C(Nc2ncnc3nc[nH]c23)OC1C(O)CO` (centres undefined), the GI50 with CCRF-CEM leukemia is 0.0318 µM and 0.023 µM; with OVCAR-5 ovarian it was 0.005 µM; with SR leukemia, less than 0.01 nM; in the experiment with BT-549 breast it was less than 1e-05 µM. Moreover, the TGI was 0.59 µM and 3.36 µM in the experiment with CCRF-CEM leukemia; 0.0171 µM and 0.0695 µM in the experiment with OVCAR-5 ovarian; 0.917 µM in the experiment with T-47D breast; 0.0109 µM and 0.0666 µM and 0.0148 µM with HT29 colon.

For `COc1ccc([C@@]23Oc4cc(OC)cc(OC)c4[C@]2(O)[C@H](O)[C@H](C(N)=O)[C@H]3c2ccccc2)cc1`, the TGI in the experiment on CCRF-CEM leukemia was more than 100 µM; in the experiment with OVCAR-5 ovarian it was 0.074 µM and < 0.0291 µM; with T-47D breast, 0.21 µM and 0.0483 µM; in the experiment with SF-295 CNS it was 0.0456 µM and < 0.01 µM; with SF-539 CNS it was 0.0193 µM; in the experiment on HT29 colon it was 0.0659 µM and 0.0515 µM. The TGI with BT-549 breast is 0.0847 µM and < 0.0226 µM. The 50% growth inhibitory concentration (GI50) with SR leukemia was 10 nM.

Regarding `CN1CCN(C(=O)COc2ccc(/C=C3\CC4C5CC=C6CC(Cl)CCC6(C)C5CCC4(C)C3=O)cc2)CC1` (centres undefined), the GI50 in the experiment on CCRF-CEM leukemia was 3.94 µM; in the experiment on OVCAR-5 ovarian, more than 100 µM; in the experiment on T-47D breast, more than 100 µM; with SF-295 CNS, more than 100 µM; in the experiment with SF-539 CNS it was more than 100 µM; in the experiment with RPMI-8226 leukemia, 6.9 µM. Further, in the experiment on BT-549 breast, the GI50 was 96.1 µM. In addition, the TGI with CCRF-CEM leukemia, in the experiment on OVCAR-5 ovarian, in the experiment with T-47D breast, with SF-295 CNS, with SF-539 CNS and with RPMI-8226 leukemia was more than 100 µM in each case. The compound further came in with a TGI in the experiment with BT-549 breast of more than 100 µM.

On to `O=c1c(Cl)c(Cl)cnn1CCCl`, for which the TGI was 4.84 µM in the experiment with CCRF-CEM leukemia; 34.5 µM in the experiment with OVCAR-5 ovarian; 14.6 µM in the experiment on T-47D breast; 31.4 µM in the experiment with SF-295 CNS; 29.5 µM in the experiment on SF-539 CNS; more than 47.1 µM in the experiment on RPMI-8226 leukemia. In addition, the TGI in the experiment with HT29 colon is 10.8 µM; in the experiment on BT-549 breast, 13.9 µM; in the experiment with LOX IMVI melanoma it was 14.3 µM.

(Values after PubChem BioAssay (NCI).)
